Experimental data published in patent US10806765B2, “Immunologically active phyto-mixture and its use in the prevention and in a method for treatment of efflorescences” (priority 2015, dated 2020).
In brackets after ≈: the same amount, converted by molar mass. Like-named read-outs stand apart in the source and are kept apart here.

How the values were obtained:
Assay type in all cases: cell-based
[1] = MTT-assay, cytotoxicity of the extracts; conditions: human, HaCaT cells (keratinocytes), individual extracts, mean ± SD, n=3
Method: HaCaT-Cells (human in vitro spontaneous transformed keratinocytes from histologically normal skin) of DMSZ (German Collection of Microorganisms and Cell Cultures) were kept in Dulbecco's modified Eagle Medium (DMEM) with glutamax (Invitrogen/Gibco, Karlsruhe, Germany) with 10% fetal calf serum (Sigma Aldrich, Germany), 100 U/ml penicillin and 100 μg/ml streptomycin and 1% NEAA.
The cells were cultivated at 37° C., 5% CO2 and 95% humidity. The cells were subcultivated by removing the medium, adding 0.075% EDTA-solution in 1-fold PBS (phosphate-buffered salt solution) and subsequently incubated at 37° C. for 10 min. […]
In order to determine the concentration dependent cytotoxicity 2×10^4 HaCaT-cells/sample well of a 96-well plate were transferred and incubated for 24 hours. […] After dissolving the formazan crystals formed by the HaCaT-cells in 100 μl DMSO (10 minutes shaking), absorption at 570 nm was measured (by means of Tecan Safire II Reader, Tecan Crailsheim, Germany). Doxorubicin was measured as reference. Cell vitality was determined according to the following formula:
IC50-values were calculated through the dose response curve which was created by use of a logistic regression curve with 4 parameters with the GraphPad Prism® 5.01 Software or SigmaPlot® 11.0.

[2] = tested on: Acinetobacter baumanii ATCC BAA747; test: MIC/MBC, microbouillon dilution; conditions: Acinetobacter baumannii, ATCCBAA747
Method: (§1) Gram-Positive Bacteria • Methicillin resistant Staphylococcus aureus MRSA NCTC 10442 (MRSA NCTC 10442) • Staphylococcus aureus ATCC 25923 (S. aureus ATCC 25923) • Staphylococcus epidermidis ATCC 14990 (S. epid. ATCC 14990)
(§2) Gram-Negative Bacteria • Pseudomonas aeruginosa ATCC 27853 (P. aerug. ATCC 27853) and • Acinetobacter baumanii ATCC BAA747 (ATCC BAA747)
(§3) The bacteria were precultivated on Columbia medium with 5% sheep blood at 37° C. for 24 hours. On to two colonies were suspended in saline solution (0.9% NaCl) and adjusted to a turbidity of 0.5 McFarland standard which corresponds to 1×10^8 colony forming units per milliliter (CFU/ml). Subsequently, the suspension was diluted to 1×10^6 CFU/ml.
(§4) Determination of the Minimal Inhibitory Concentration (MIC) and the Minimum Bactericidal Concentration (MBC)
(§5) The MIC was determined by means of the microbouillon dilution process according to NCCLS (2006). For this purpose, the aqueous extracts were dissolved in water (w/v) and the ethanolic extracts in 5% DMSO (w/v) with 80 mg/ml each and Bur. simaruba as well as Aloe vera were suspended with 160 mg/ml. The extracts and the combinations (1:1 mixture) of two plant extracts were respectively transferred into a sample well of a 96-well plate. The individual extracts were respectively adjusted to a concentration of 4 mg/ml to 8 mg/ml and 0.03 mg/ml and the combinations to 2:2 mg/ml to 0.3:0.3 mg/ml. Subsequently, the bacteria suspensions with about 5×10^5 CFU/ml in Müller Hinton medium (Fluka) were respectively added. The accordingly fitted 96-well plates were incubated at 37° C. for 24 hours.
(§6) The MIC was determined at 600 nm on the basis of the turbidity. In order to determine the MBC, 3 μl of the suspension of the respective sample well were spread on an full culture medium and incubated at 37° C. for 24 hours. The MBC was determined as lowest concentrations of the respective extract which totally kills the microorganisms.
(§7) All experiments were performed as three-fold determination (Table 4 to 5). The antibiotics Vancomycin (briefly: Van) and Streptomycin (briefly: Strep) were used parallely to each experimental approach as positive control for antimicrobial efficiency (Table 5c). Respectively one of the mentioned test germs was carried along with the respectively solvent (water, DMSO) as negative control for an inhibiting effect by the used solvent.

[3] = tested on: Methicillin resistant Staphylococcus aureus MRSA NCTC 10442; test: MIC/MBC, microbouillon dilution
Method: as §1, §2, §3, §4, §5, §6, §7

[4] = tested on: Staphylococcus aureus ATCC 25923; test: MIC/MBC, microbouillon dilution
Method: as §1, §2, §3, §4, §5, §6, §7

[5] = tested on: Staphylococcus epidermidis ATCC 14990; test: MIC/MBC, microbouillon dilution
Method: as §1, §2, §3, §4, §5, §6, §7

[6] = tested on: Pseudomonas aeruginosa ATCC 27853; test: MIC/MBC, microbouillon dilution; conditions: ATCC27853, positive control antibiotic, unit from Table 5c
Method: as §1, §2, §3, §4, §5, §6, §7

COc1cccc2c1C(=O)c1c(O)c3c(c(O)c1C2=O)C[C@@](O)(C(=O)CO)C[C@@H]3O[C@H]1C[C@H](N)[C@H](O)[C@H](C)O1 [Doxorubicin]
IC50 [1]: 8.6 ± 2.03 µg/mL (≈ 15.8 µM)

CN[C@H](CC(C)C)C(=O)N[C@H]1C(=O)N[C@@H](CC(N)=O)C(=O)N[C@H]2C(=O)N[C@H]3C(=O)N[C@H](C(=O)N[C@H](C(=O)O)c4cc(O)cc(O)c4-c4cc3ccc4O)[C@H](O)c3ccc(c(Cl)c3)Oc3cc2cc(c3O[C@@H]2O[C@H](CO)[C@@H](O)[C@H](O)[C@H]2O[C@H]2C[C@](C)(N)[C@H](O)[C@H](C)O2)Oc2ccc(cc2Cl)[C@H]1O [Van, Vancomycin]
MBC [2]: 128 µg/mL | MIC [2]: 64 µg/mL | MBC [3]: 2 µg/mL | MIC [3]: 1 µg/mL | MBC ([4]; ATCC25923): 0.5 µg/mL | MBC ([5]; ATCC14990): 2 µg/mL | MIC ([5]; ATCC14990): 1 µg/mL

[H]/N=C(/N)N[C@H]1[C@H](O)[C@@H](O)[C@H](O[C@@H]2O[C@@H](C)[C@](O)(C=O)[C@H]2O[C@@H]2O[C@@H](CO)[C@H](O)[C@@H](O)[C@@H]2NC)[C@@H](N/C(N)=N\[H])[C@@H]1O [Strep, Streptomycin]
MBC ([2]; positive control antibiotic, unit from Table 5c, read-out: MBC): 4 µg/mL | MIC ([2]; positive control antibiotic, unit from Table 5c, read-out: MIC): 2 µg/mL | MBC [6]: 8 µg/mL | MIC [6]: 4 µg/mL | MIC ([4]; ATCC25923, positive control antibiotic, unit from Table 5c): 2 µg/mL | MBC ([4]; ATCC25923, positive control antibiotic, unit from Table 5c, read-out: MBC): 8 µg/mL | MBC ([5]; ATCC14990, positive control antibiotic, unit from Table 5c, read-out: MBC): 8 µg/mL | MIC ([5]; ATCC14990, positive control antibiotic, unit from Table 5c, read-out: MIC): 1 µg/mL
